The source of these data is patent US12570648B2, “6,7-dihydro-5H-pyrido[2,3-c]pyridazine derivatives and related compounds as Bcl-xL protein inhibitors and pro-apoptotic agents for treating cancer” (LES LABORATOIRES SERVIER, priority 2019, dated 2026).

What is called Ki is the dissociation constant of the complex between target and ligand, obtained from inhibition or displacement. As a reminder, the IC50 is the concentration at which inhibition is half-maximal. Read a high IC50 as weaker potency in that assay.

The target of data set [1] is GST(1-218)-(FACTOR_XA)-hsBCLXL(2-209) (Homo sapiens (Human), UniProt Q07817). Briefly: Fluorescence polarisation assay. It counts as binding. The protocol: Fluorescence polarization measures the rotation of a fluorescing species in solution, the larger the molecule the more polarized the fluorescence emission.
(GST UniProtKB® primary accession number P08515 and BCLXL UniProtKB® primary accession number Q07817-1), • resulting in an increase in anisotropy. If a compound is added which competitively binds to the same site as the probe, thereby releasing it, anisotropy decreases due to the increased amount of free probe.
An 11-point serial dilution of each compound was prepared in DMSO, the final buffer conditions were 10 mM 4-(2-hydroxyethyl)-1-piperazineethanesulfonic acid [HEPES], 150 mM NaCl, 0.05% Tween 20, pH 7.4 and 5% DMSO. The final protein concentration in the assay was 20 nM with the fluorescent probe present at 10 nM. […] 1; 37 (WebServer issue): W441-W445.
(In general: In fluorescence polarisation assays a small probe gives low polarisation when free and higher when bound to something large.)

Another data set deals with circulating platelets. As to the kind of experiment: Pharmacodynamics: circulating platelets in MOLT-4-grafted mice. It is filed as in vivo, female NOD SCID mice. The conditions noted are these: after treatment discontinuation (data not shown). The protocol: For pharmacodynamics studies, when tumors reached the appropriate volume, mice were randomized (3 animals per group) using Easy stat software. […] Tumor samples were collected 6 h after dosing and lysed (10 mM HEPES pH 7.4, 142.5 mM KCl, 5 mM MgCl2, 1 mM EDTA, 1% NP40, protease and phosphatase inhibitors cocktails—Calbiochem). Cleared lysates were prepared for immunodetection of cleaved PARP and Caspase 3 by using the MSD apoptosis panel whole cell lysate kit (MSD) in 96-well plates according to manufacturer's instructions, and were analyzed on the QuickPlex SQ 120. Whole blood samples were analyzed on the Hematology Analyzer Coulter Ac⋅T diff (Beckman Coulter).

In data set [2] the target is His-His-(EK)-hsBCLXL(2-197)[N197C] (Homo sapiens (Human), UniProt Q07817, N197C). As to the kind of experiment: Fluorescence quenching assay. It counts as binding. Conditions: 1 nM Cy5-labelled protein, 400 nM PUMA peptide, 2 hours at 23° C.; KI determined from IC50. A digest of the protocol: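 Cy5-labelled BCL-xL (1 nM) with TQ5WS quencher-labelled PUMA peptide (400 nM); displacement by compound (11-point dilution) raises fluorescence. Buffer 10 mM HEPES, 150 mM NaCl, 0.05% Tween 20, pH 7.4, 5% DMSO; 2 h at 23° C, Ex 620/Em 680 nm. Ki derived from IC50.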

The subject of another data set is MOLT-4 xenografts. As to the kind of experiment: Tumor regression study in MOLT-4 xenografts. It counts as in vivo, female NOD SCID mice. The conditions noted are these: 5 mg/kg IV. The protocol: The in vivo therapeutic and pharmacodynamic effects of Bcl-xL-targeting small molecules were determined in MOLT-4 T-cell Acute Lymphoblastic Leukemia (T-ALL) model upon intravenous (IV) or oral (PO) administration.
MOLT-4 cells (ATCC No. CRL-1582) were cultured in RPMI supplemented with 10% FBS. Cells were re-suspended in 50% matrigel (BD Biosciences) and 0.1 mL containing 5×10^6 cells was subcutaneously inoculated into the right flank of female NOD SCID mice (Charles River). For efficacy studies, when tumors reached the appropriate volume, mice were randomized (7 animals per group) using Easy stat software. […] Mice body weight was monitored three times a week and tumor size was measured using electronic calipers. Tumor volume was estimated by measuring the minimum and maximum tumor diameters using the formula: (minimum diameter)^2(maximum diameter)/2. The last day with at least half of control animals still present in the study (day 31), tumor growth inhibition was calculated using the formula: […]
Response was evaluated as follows: CR (Complete Response) if tumor size was <25 mm^3 for at least three consecutive measurements, PR (Partial Response) if tumor size was comprised between 25 mm^3 and half of the starting size for at least three consecutive measurements. Mice were sacrificed at the first measurement for which tumor volume exceeded 2000 mm^3 or at the first signs of animal health deterioration.

The subject of a further data set is H146 cells. Briefly: H146 cell viability using MTT assay. The conditions noted are these: Homo sapiens, NCI-H146, 48 h exposure. It is filed as cell-based. An outline of the steps: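 Cells were cultured in RPMI 1640 with 10% heat-inactivated FBS, penicillin/streptomycin and 2 mM L-glutamine, then exposed 48 h to 9 concentrations (3.16-fold series, triplicates). MTT was added for 4 h and formazan solubilised overnight in SDS/HCl. OD was read at 540 nm and IC50 fitted with four-parameter curves.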
For orientation: Formazan colour is commonly taken as a measure of viable cells.

Sequence of GST(1-218)-(FACTOR_XA)-hsBCLXL(2-209) (Q07817 other isoform, or with tags, fused parts or gaps): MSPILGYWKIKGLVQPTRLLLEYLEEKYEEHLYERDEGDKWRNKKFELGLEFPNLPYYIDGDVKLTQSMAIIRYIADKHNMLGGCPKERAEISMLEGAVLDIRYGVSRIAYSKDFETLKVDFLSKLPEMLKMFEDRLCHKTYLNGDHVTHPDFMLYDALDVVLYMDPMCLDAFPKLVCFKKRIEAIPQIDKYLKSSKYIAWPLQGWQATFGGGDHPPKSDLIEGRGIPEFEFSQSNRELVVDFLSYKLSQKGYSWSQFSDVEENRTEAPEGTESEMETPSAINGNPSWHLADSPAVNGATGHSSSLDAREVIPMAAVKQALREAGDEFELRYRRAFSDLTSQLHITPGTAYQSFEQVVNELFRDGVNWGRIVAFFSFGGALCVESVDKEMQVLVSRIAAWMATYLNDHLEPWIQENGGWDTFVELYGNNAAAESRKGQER
Sequence of His-His-(EK)-hsBCLXL(2-197)[N197C] (Q07817 2-197 N197C): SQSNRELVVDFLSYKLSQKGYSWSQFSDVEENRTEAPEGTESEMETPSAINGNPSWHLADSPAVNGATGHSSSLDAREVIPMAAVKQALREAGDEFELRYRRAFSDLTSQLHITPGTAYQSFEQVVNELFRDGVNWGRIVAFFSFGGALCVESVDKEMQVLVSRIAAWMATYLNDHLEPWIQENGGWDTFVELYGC

Turning to `Cc1c(Nc2nc3ccccc3s2)nnc2c1CCCN2c1ccc(-c2cnn(CC34CC5CC(CC(C5)C3)C4)c2C)c(C(=O)O)n1` [Example 24], the Ki in data set [1] is less than 1 nM. Besides, the platelets loss recovery result in the data set with circulating platelets is given as “platelets loss was recovered after treatment discontinuation”. The Ki in data set [2] was determined as 0.008 nM. Besides, in the data set with MOLT-4 xenografts (Q3D6), the “% CR” value turned out to be 0% and the “% PR” value was 71.4%. In addition, in the data set with MOLT-4 xenografts (Q3D6, day 31), the “% TGI (d31)” value amounted to 78.7%. In the data set on H146 cells, this molecule gave an IC50 of 32.7 nM.
